The values below come from patent US9074235B2, “Method for evaluating the improvement of skin elasticity using a mimetic dermis” (AMOREPACIFIC CORPORATION, priority 2010, dated 2015).

Experiment [1] has as its system dermal mimics (glycated collagen with human neonatal fibroblasts). As to the kind of experiment: Evaluation of skin elasticity-improving effect using dermal mimics (three-dimensional images). The format is cell-based. The note with it: observed about 10 minutes after separation from culture insert. As for the experimental part: (1) 40 μl of 10× P buffer (DMEM (Dulbecco's Modified Eagle Medium (DMEM powder, Gibco, USA)), a Ham's F-12 nutrient mixture (F-12 powder, Gibco, USA), 4 ml of an antibiotic-antifungal agent (PSF, Gibco, USA) in 400 ml of sterile distilled water, 40 μl of reconstitution buffer (obtained by dissolving 2.2 g of NaHCO3 and 4.77 g of HEPES in 100 ml of 0.05M NaOH, and filtering the solution) and 2 μl of 5 M NaOH were added to an Epi-tube and sufficiently mixed.
(2) 320 μl of an aqueous solution of normal collagen or an aqueous solution of glycated collagen is added to and well mixed with the mixture of step (1) and using a pipette.
(3) 10^4 human neonatal fibroblasts (HDFn, Cascade Biologics, USA) are added to and well mixed with the solution of step (2) using a pipette so that the fibroblasts are uniformly distributed in the solution.
(4) A culture insert (12 mm, Transwell®, Corning, USA) is placed in a 12-well culture dish, and the mixture is placed in the culture insert and is allowed to react at 37° for 30 minutes so that the aqueous collagen solution is hardened.
(5) After the collagen has been completely hardened, fibroblast culture medium (M106, Cascade Biologics, USA) is added to both the inside and outside of the culture insert and incubated overnight. Then, the dermal mimic is incubated for in about one week while the medium is replaced at 3-day intervals. In this process, dermal remodeling occurs due to the interaction between the fibroblasts and the collagen fibers.
Specifically, in this Example, the following collagens were prepared: non-glycated collagen (normal collagen); collagen glycated by treatment with 62.5 mM of ribose; collagen glycated by treatment with 62.5 mM of ribose together with 10 ppm of tocopherol; and collagen glycated by treatment with 62.5 mM of ribose together with 1 ppm of DPHP. Herein, the ribose used was obtained by dissolving D-ribose (Sigma, USA) in water and filtering the solution through a 0.2 μm filter (Minisart® sartorious stedim biotech, Germany). […]

In experiment [2] the test system is collagen gel with fibroblasts. The experiment can be described thus: Collagen gel contraction assay (two-dimensional). The format is cell-based, human. The note with it: collagen glycated with ribose at 62.5, 125 and 250 mM. The method, then:
Specifically, the dermal mimics were prepared according to the method of Reference Example 1, and the glycated collagen solution used in step (2) of the preparation method of Reference Example 1 was obtained by treating collagen with ribose at concentrations of 0, 62.5, 125 and 250 mM to induce collagen glycation. In addition, the ribose used was obtained by dissolving D-ribose (Sigma, USA) in water and filtering the solution through a 0.2 μm filter (Minisart® sartorious stedim biotech, Germany).
A specific method for glycation of collagen is as follows. D-ribose was added to a solution of collagen (obtained by dissolving type I collagen (Sigma, USA) in 0.1% acetic acid to a final concentration of 3 mg/ml) at specific concentrations (62.5, 125 and 250 mM) in a clean bench for preventing the contamination of collagen, and the mixture was placed in a rotation mixer rotatable at 360°, after which the mixture was allowed to react at room temperature for 3 days to induce glycation of the collagen.
In addition, for comparison, a collagen gel contraction assay which is a two-dimensional method was carried out by culturing a collagen gel, obtained by mixing fibroblasts with collagen glycated with the above-described concentrations of ribose, in a general culture dish, and obtaining a digital image of the cultured collagen gel.

Regarding `CCCCCCCCCCCCCCCC(=O)O[C@@H]1C[C@@H](C(=O)O)N(C(=O)CCCCCCCCCCCCCCC)C1` [DPHP], the “breakdown of the dermal mimics (shape/height on three-dimensional image)” value in experiment [1] (collagen glycated with 62.5 mM ribose together with 1 ppm DPHP) was “breakdown of the dermal mimics was inhibited”. For `O=C[C@H](O)[C@H](O)[C@H](O)CO` [ribose, D-ribose], the “shape of the dermal mimics (three-dimensional image)” value in experiment [1] (collagen glycated with 62.5 mM ribose alone) is reported as “broken down”. In addition, the “contraction of collagen gels (two-dimensional digital image)” value in experiment [2] is recorded as “not contracted”. For the compound tocopherol, the “breakdown of the dermal mimics (shape/height on three-dimensional image)” value in experiment [1] (collagen glycated with 62.5 mM ribose together with 10 ppm tocopherol) is recorded as “breakdown of the dermal mimics was inhibited”.
